From patent US5318989A, “Cytotoxic bicyclo [7.3.1.]tridec-4-ene-2,6-diyne compounds and process for the preparation thereof” (Bristol-Myers Squibb Company, priority 1992, dated 1994)
Converted amounts (≈) assume the structure as drawn. “And” between values parts separate entries of the source, which are not always exact repeats. Identical values can stand only once. Like-named read-outs stand apart in the source and are kept apart here.

Experiments:
[1] = test system: P388 leukemia; test: In vivo activity against transplantable murine P388 leukemia in CDF1 mice; settings: for Survival d.5: day 5; for Med. Survival Time / % T/C: intraperitoneal; for Med. Survival Time: 5 consecutive days from day 1, control 11 d; for % T/C: 5 consecutive days, 125 or greater is significant
Description: The compound of Example 4 was also evaluated against transplantable murine P388 leukemia. CDF1 mice were implanted intraperitoneally with a tumor inoculum of 10^6 cells of P388 leukemia and treated with various doses of the test compound Six mice were used for each dose level and 10 mice were treated with saline to serve as control. The test compound was administered intraperitoneally on 5 consecutive days starting on day 1 after tumor implantation. Antitumor activity is expressed as % T/C which is the ratio of mean survival time (MST) for the drug-treated group to the MST of saline-treated control group.
A compound showing a % T/C of 125 or greater is considered to have significant antitumor activity.

[2] = test system: DNA; settings: J. Org. Chem. 1989, 54:2781-2783; J. Am. Chem. Soc. 1989, 111:7638-7641; cited from earlier work
[3] = test system: HCT-116 human colon tumor cell line; test: In vitro cytotoxicity assay; format: cell-based; settings: three determinations
Description: (§1) Compound of Example 4 was evaluated in vitro against three human colon tumor cell lines: HCT-116, HCT/VM46, and HCT/VP35; the latter two are resistant to teniposide and etoposide, respectively. The in vitro cytotoxicity assay involved growing tumor cells on microtitre plates employing established tissue culture methods. The concentration of the test compound required to inhibit cell growth by 50% (IC50) was then determined by four-fold serial dilution technique. In the experiment, etoposide and teniposide were included as positive controls.

[4] = test system: HCT/VP35 human colon tumor cell line (etoposide-resistant); test: In vitro cytotoxicity assay; format: cell-based; settings: three determinations
Description: as §1

[5] = test system: HCT/VM46 human colon tumor cell line (teniposide-resistant); test: In vitro cytotoxicity assay; format: cell-based; settings: three determinations
Description: as §1

[6] = Homo sapiens, HCT-116, HCT-116, read-out: IC50
[7] = Homo sapiens, HCT/VP35, HCT/VP35, read-out: IC50

1-Hydroxy-8-[[(2-quinoxolyamino)carbonyl]oxy]-bicyclo[7.3.1]trideca-4,7-diene-2,6-divn-13-one [Example 8]
max. %T/C ([1]; at 15 mg/kg/dose, same protocol): 145%

O=C1CC2C(=O)C(O)(C#CC=CC#CC2O)C1 (centres unmarked) [1,8-dihydroxy-bicyclo[7.3.1]tridec-4-ene-2,6-diyn-11,13-dione]
DNA cleavage in vitro [2]: shown to cleave DNA in vitro

COc1cc([C@@H]2c3cc4c(cc3[C@@H](O[C@@H]3O[C@@H]5CO[C@@H](C)O[C@H]5[C@H](O)[C@H]3O)[C@H]3COC(=O)[C@H]23)OCO4)cc(OC)c1O [Etoposide]
IC50 ([3]; HCT-116): 0.128 µg/mL and 0.140 µg/mL | IC50 [3, 6]: 0.101 µg/mL (≈ 0.172 µM) | IC50 ([4]; HCT/VP35): 6.29 µg/mL and 6.75 µg/mL | IC50 [4, 7]: 5.14 µg/mL (≈ 8.73 µM)

O=C1C2=CCCC1(O)C#CC=CC#CC2O (centres unmarked) [Example 4, 1,8-Dihydroxy-bicyclo7.3.1]trideca-4,9-diene-2,6-divn-13-one]
IC50 ([3]; HCT-116): 0.037 µg/mL and 0.043 µg/mL and < 0.031 µg/mL | IC50 [5]: < 0.031 µg/mL and 0.047 µg/mL | IC50 ([4]; HCT/VP35): 0.042 µg/mL and 0.046 µg/mL and 0.072 µg/mL | Survival d.5 ([1]; 1 mg/kg/dose): 6/6 | Med. Survival Time ([1]; 1 mg/kg/dose): 13 days | % T/C ([1]; 1 mg/kg/dose): 118% | Survival d.5 ([1]; 2 mg/kg/dose): 6/6 | Med. Survival Time ([1]; 2 mg/kg/dose): 16.5 days | % T/C ([1]; 2 mg/kg/dose): 150% | Survival d.5 ([1]; 4 mg/kg/dose): 6/6 | Med. Survival Time ([1]; 4 mg/kg/dose): 20.0 days | % T/C ([1]; 4 mg/kg/dose): 182% | Survival d.5 ([1]; 8 mg/kg/dose): 6/6 | number of surviving mice on day 39 ([1]; 8 mg/kg/dose, day 39): 4 mice | Med. Survival Time ([1]; 8 mg/kg/dose): > 39 days | % T/C ([1]; 8 mg/kg/dose): > 355% | Survival d.5 ([1]; 16 mg/kg/dose): 6/6 | Med. Survival Time ([1]; 16 mg/kg/dose): 9.5 days | % T/C ([1]; 16 mg/kg/dose): 86% | Survival d.5 ([1]; 32 mg/kg/dose): 6/6 | Med. Survival Time ([1]; 32 mg/kg/dose): 7 days | % T/C ([1]; 32 mg/kg/dose): 64% | activity against P388 leukemia ([1]; conclusion from Table II): high activity against P388 leukemia

O=C(OC1C#CC=CC#CC2(O)CCC=C1C2=O)c1cnc2ccccc2n1 (centres unmarked) [Example 6]
mouse surviving on day 31 ([1]; 20 mg/kg/dose, day 31): one | maximum %T/C ([1]; at 20 mg/kg/dose, same protocol): 235%

O=C1C2=CCCC1(O)C#C/C=C\C#CC2 (centres unmarked) [Example 15, 1-Hydroxy-bicylco[7.3.1]trideca-4,9-diene-2,6-diyne-13-one]
max. %T/C ([1]; at 40 mg/kg/dose, same protocol): 230%

COc1cc([C@@H]2c3cc4c(cc3[C@@H](O[C@@H]3O[C@@H]5CO[C@@H](c6cccs6)O[C@H]5[C@H](O)[C@H]3O)[C@H]3COC(=O)[C@H]23)OCO4)cc(OC)c1O [Teniposide]
IC50 ([3]; HCT-116): 0.088 µg/mL and 0.083 µg/mL | IC50 [3, 6]: 0.077 µg/mL (≈ 0.117 µM) | IC50 ([5]; Homo sapiens, read-out: IC50): 0.313 µg/mL (≈ 0.477 µM) | IC50 [5]: 0.237 µg/mL and 0.236 µg/mL | IC50 ([4]; HCT/VP35): 0.091 µg/mL and 0.111 µg/mL | IC50 [4, 7]: 0.084 µg/mL (≈ 0.128 µM)
